Results from ChEMBL document CHEMBL4265899, “Trisubstituted thiazoles as potent and selective inhibitors of Plasmodium falciparum protein kinase G (PfPKG)” (Bioorg Med Chem Lett, 2018).

Assays:
[1] = target: Insulin-like growth factor 1 receptor (Homo sapiens) (UniProt P08069); test: Inhibition of human IGF1R at 100 nM
[2] = target: High affinity nerve growth factor receptor (Homo sapiens) (UniProt P04629); test: Inhibition of human TrkA at 100 nM
[3] = target: Tyrosine-protein kinase Lck (Homo sapiens) (UniProt P06239); test: Inhibition of human LCK at 100 nM
Tyrosine-protein kinase Lck (Homo sapiens), sequence (P06239 2-509 limits assumed): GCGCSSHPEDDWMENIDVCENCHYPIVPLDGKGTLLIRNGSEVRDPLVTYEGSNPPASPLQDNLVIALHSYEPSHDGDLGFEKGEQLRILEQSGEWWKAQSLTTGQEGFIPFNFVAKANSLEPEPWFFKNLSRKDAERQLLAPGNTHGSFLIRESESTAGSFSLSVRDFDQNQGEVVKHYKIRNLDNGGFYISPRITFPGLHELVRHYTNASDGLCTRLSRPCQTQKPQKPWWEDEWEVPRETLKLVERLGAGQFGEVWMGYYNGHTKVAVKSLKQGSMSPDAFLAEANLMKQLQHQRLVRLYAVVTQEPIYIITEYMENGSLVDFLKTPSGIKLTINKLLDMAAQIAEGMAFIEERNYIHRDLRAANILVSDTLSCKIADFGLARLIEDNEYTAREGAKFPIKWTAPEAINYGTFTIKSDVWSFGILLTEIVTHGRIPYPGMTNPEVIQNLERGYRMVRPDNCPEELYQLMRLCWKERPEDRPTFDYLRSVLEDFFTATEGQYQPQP

[4] = target: T1, Inhibitor of nuclear factor kappa-B kinase subunit epsilon (Homo sapiens) (UniProt Q14164); conditions: at 100 nM
T1 sequence (whole entry): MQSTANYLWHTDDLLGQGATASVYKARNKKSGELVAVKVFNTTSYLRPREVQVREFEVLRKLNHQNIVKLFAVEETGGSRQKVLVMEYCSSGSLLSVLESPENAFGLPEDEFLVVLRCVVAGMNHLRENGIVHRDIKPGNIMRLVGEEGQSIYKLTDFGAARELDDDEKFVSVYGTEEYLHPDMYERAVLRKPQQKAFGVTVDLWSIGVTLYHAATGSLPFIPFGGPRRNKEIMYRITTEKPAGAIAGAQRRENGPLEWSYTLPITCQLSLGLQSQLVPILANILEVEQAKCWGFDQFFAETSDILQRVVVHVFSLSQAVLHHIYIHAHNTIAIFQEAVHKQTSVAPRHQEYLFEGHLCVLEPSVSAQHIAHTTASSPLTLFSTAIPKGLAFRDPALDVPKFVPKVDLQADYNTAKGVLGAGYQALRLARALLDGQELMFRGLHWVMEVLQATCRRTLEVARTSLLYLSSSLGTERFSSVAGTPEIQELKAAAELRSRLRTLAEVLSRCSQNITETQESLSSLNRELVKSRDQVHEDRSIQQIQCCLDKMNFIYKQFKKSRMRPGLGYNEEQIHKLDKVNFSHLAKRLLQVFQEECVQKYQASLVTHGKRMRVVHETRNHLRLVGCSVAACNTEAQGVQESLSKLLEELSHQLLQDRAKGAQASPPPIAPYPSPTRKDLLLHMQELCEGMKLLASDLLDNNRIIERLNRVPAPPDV
Description: Inhibition of human IKKepsilon at 100 nM

[5] = target: Receptor-interacting serine/threonine-protein kinase 2 (Homo sapiens) (UniProt O43353); test: Inhibition of human RIPK2 at 100 nM
Receptor-interacting serine/threonine-protein kinase 2 (Homo sapiens), sequence (O43353 whole entry): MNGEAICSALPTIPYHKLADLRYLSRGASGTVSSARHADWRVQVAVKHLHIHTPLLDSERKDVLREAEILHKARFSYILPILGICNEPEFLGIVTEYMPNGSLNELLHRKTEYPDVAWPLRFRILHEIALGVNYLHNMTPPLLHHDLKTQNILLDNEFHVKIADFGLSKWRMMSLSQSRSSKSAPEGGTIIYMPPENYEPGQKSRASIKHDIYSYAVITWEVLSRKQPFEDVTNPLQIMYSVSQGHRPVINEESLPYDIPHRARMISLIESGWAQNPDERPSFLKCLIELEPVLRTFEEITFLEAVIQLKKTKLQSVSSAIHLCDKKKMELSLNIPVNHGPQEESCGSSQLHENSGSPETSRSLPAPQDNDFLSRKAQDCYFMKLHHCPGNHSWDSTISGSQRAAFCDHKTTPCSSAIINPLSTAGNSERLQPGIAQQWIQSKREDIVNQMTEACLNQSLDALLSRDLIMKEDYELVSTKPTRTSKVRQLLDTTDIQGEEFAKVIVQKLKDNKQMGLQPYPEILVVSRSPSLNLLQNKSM

[6] = target: T2, Serine/threonine-protein kinase D1 (Homo sapiens) (UniProt Q15139); test: Inhibition of human PKD1 at 100 nM
T2 sequence (whole entry): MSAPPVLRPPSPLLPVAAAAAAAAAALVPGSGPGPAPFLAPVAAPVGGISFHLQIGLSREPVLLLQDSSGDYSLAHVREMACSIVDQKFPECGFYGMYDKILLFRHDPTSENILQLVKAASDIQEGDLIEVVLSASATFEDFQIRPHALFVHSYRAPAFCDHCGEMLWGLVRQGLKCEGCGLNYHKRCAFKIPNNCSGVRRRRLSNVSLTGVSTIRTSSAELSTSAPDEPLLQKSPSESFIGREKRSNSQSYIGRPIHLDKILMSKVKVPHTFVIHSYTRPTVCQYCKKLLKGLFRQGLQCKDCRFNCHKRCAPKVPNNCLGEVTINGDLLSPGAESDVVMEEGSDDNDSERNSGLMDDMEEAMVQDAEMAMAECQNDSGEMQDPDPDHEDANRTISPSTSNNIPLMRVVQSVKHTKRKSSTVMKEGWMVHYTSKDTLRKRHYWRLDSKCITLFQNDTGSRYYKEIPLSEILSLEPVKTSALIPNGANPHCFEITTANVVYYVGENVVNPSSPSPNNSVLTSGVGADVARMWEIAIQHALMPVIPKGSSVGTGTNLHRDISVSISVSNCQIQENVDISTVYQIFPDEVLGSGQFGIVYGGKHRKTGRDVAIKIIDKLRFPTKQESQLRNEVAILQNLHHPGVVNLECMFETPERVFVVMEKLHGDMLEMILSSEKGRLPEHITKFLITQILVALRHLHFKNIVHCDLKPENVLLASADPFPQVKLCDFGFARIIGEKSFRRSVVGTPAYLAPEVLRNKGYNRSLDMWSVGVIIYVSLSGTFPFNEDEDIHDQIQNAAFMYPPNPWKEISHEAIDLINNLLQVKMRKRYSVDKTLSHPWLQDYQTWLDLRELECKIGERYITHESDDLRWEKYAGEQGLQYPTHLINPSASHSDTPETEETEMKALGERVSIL

[7] = target: Serine/threonine-protein kinase Sgk1 (Homo sapiens) (UniProt O00141); test: Inhibition of human SGK1 at 100 nM
Serine/threonine-protein kinase Sgk1 (Homo sapiens), sequence (O00141 whole entry): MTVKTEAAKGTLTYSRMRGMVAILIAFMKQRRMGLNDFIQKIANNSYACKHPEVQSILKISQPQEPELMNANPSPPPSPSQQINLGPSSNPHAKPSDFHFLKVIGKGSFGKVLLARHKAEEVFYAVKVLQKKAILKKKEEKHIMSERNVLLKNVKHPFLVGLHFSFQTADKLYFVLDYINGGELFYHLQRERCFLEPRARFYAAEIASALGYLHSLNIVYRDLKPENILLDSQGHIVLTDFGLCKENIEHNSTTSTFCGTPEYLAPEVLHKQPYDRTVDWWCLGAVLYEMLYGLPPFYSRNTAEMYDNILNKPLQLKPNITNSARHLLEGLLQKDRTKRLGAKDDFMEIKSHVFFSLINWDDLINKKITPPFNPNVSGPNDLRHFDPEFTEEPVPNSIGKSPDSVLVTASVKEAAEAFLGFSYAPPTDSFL

[8] = target: Aurora kinase B (Homo sapiens) (UniProt Q96GD4); test: Inhibition of human Aurora B at 100 nM
[9] = target: Serine/threonine-protein kinase PLK1 (Homo sapiens) (UniProt P53350); test: Inhibition of human PLK1 at 100 nM
[10] = target: Casein kinase I isoform alpha (Homo sapiens) (UniProt P48729); test: Inhibition of human CK1 at 100 nM
[11] = target: Serine/threonine-protein kinase pim-1 (Homo sapiens) (UniProt P11309); test: Inhibition of human PIM1 at 100 nM
Serine/threonine-protein kinase pim-1 (Homo sapiens), sequence (P11309 whole entry, looked up): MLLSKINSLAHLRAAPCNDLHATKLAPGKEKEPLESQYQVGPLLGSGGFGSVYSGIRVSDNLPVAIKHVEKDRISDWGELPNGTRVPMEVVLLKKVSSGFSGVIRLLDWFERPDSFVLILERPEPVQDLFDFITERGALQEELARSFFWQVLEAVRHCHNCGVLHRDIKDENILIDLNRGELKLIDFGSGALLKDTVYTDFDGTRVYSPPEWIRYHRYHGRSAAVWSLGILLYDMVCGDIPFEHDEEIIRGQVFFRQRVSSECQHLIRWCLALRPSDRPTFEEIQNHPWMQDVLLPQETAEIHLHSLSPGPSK

[12] = target: Mitogen-activated protein kinase 9 (Homo sapiens) (UniProt P45984); test: Inhibition of human JNK2 at 100 nM
[13] = target: MAP/microtubule affinity-regulating kinase 3 (Homo sapiens) (UniProt P27448); test: Inhibition of human MARK3 at 100 nM
MAP/microtubule affinity-regulating kinase 3 (Homo sapiens), sequence (P27448 whole entry, looked up): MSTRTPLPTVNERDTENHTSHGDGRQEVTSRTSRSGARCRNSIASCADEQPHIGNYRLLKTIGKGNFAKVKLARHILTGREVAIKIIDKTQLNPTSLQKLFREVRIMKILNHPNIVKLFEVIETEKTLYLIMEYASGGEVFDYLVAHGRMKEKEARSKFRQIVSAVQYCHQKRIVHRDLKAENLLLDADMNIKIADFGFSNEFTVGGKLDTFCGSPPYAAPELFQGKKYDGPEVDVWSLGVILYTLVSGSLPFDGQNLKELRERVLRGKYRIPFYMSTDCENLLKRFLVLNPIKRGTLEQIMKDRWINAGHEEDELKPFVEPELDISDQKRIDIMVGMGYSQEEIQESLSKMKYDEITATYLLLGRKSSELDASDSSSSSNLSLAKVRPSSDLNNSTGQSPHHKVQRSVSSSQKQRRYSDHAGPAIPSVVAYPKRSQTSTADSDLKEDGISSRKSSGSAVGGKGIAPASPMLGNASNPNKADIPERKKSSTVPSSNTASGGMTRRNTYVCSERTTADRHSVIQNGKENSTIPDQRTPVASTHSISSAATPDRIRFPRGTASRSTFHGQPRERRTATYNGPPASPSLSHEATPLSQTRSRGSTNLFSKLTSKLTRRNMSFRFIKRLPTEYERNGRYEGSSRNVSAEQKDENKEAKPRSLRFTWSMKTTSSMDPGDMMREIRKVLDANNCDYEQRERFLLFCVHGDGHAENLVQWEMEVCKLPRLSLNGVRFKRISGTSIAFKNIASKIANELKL

[14] = Metabolic stability in mouse liver microsomes assessed as compound remaining after 40 mins; format: ADME, microsome; conditions: read-out: Stability
[15] = target: Ribosomal protein S6 kinase alpha-1 (Homo sapiens) (UniProt Q15418); test: Inhibition of human RSK1 at 100 nM
Ribosomal protein S6 kinase alpha-1 (Homo sapiens), sequence (Q15418 whole entry): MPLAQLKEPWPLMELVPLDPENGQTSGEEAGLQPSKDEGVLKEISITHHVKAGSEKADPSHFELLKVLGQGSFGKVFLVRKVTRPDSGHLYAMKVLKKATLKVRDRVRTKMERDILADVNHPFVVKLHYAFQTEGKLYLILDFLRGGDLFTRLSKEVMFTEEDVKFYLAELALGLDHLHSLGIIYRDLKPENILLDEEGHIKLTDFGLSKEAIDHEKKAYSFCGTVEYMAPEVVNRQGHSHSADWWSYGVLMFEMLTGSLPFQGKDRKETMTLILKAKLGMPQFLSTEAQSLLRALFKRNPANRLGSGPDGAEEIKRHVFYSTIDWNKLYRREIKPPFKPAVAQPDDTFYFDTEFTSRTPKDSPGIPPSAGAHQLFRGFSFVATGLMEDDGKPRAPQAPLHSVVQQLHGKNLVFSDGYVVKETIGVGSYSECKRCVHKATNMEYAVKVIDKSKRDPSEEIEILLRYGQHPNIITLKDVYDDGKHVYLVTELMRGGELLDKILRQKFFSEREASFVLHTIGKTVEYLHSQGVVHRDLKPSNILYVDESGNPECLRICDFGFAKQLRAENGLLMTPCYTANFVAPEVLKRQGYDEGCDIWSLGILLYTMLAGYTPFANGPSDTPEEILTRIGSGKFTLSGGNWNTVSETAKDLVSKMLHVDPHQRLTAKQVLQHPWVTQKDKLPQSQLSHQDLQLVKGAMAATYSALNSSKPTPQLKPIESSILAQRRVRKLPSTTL

[16] = target: Ephrin type-A receptor 2 (Homo sapiens) (UniProt P29317); test: Inhibition of human EPHA2 at 100 nM
[17] = target: Ephrin type-B receptor 3 (Homo sapiens) (UniProt P54753); test: Inhibition of human EPHB3 at 100 nM
[18] = target: Proto-oncogene tyrosine-protein kinase Src (Homo sapiens) (UniProt P12931); test: Inhibition of human Src at 100 nM
Proto-oncogene tyrosine-protein kinase Src (Homo sapiens), sequence (P12931 2-536 limits assumed): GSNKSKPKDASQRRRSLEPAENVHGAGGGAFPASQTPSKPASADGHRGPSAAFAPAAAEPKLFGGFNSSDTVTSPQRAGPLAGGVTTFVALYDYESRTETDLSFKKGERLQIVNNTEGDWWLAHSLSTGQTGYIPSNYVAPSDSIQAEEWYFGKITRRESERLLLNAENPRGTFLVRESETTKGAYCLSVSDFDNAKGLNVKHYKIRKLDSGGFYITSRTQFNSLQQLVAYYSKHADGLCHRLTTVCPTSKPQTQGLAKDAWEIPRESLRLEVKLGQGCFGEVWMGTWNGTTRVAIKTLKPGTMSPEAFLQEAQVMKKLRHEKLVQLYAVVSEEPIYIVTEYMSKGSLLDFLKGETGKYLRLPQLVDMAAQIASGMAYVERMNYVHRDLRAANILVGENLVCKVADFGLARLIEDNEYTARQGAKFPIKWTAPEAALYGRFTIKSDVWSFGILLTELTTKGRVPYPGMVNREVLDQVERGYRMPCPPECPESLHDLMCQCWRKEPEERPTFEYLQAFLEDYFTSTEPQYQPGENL

[19] = Metabolic stability in human liver microsomes assessed as compound remaining after 40 mins; format: ADME, microsome; conditions: read-out: Stability
[20] = target: Mitogen-activated protein kinase kinase kinase 1 (Homo sapiens) (UniProt Q13233); test: Inhibition of human MEKK1 at 100 nM
[21] = target: Serine/threonine-protein kinase BRSK2 (Homo sapiens) (UniProt Q8IWQ3); test: Inhibition of human BRSK2 at 100 nM
[22] = target: Serine/threonine-protein kinase Chk2 (Homo sapiens) (UniProt O96017); test: Inhibition of human CHK2 at 100 nM
Serine/threonine-protein kinase Chk2 (Homo sapiens), sequence (O96017 whole entry): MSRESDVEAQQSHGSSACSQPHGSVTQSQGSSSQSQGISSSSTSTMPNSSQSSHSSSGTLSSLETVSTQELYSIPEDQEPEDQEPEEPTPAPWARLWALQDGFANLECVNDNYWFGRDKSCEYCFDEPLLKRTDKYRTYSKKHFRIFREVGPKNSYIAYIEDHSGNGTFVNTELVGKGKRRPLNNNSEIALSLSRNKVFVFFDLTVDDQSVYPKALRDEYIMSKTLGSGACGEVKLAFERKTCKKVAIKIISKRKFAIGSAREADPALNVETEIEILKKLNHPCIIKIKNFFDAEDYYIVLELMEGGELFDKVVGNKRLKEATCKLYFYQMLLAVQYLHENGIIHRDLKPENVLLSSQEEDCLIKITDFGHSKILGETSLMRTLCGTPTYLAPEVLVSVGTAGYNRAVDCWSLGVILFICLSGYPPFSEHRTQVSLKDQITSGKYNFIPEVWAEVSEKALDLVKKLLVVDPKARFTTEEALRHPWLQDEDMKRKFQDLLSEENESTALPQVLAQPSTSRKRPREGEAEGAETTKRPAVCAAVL

[23] = target: Aurora kinase A (Homo sapiens) (UniProt O14965); test: Inhibition of human Aurora A at 100 nM
[24] = target: Mitogen-activated protein kinase 1 (Homo sapiens) (UniProt P28482); test: Inhibition of human ERK2 at 100 nM
Mitogen-activated protein kinase 1 (Homo sapiens), sequence (P28482 whole entry): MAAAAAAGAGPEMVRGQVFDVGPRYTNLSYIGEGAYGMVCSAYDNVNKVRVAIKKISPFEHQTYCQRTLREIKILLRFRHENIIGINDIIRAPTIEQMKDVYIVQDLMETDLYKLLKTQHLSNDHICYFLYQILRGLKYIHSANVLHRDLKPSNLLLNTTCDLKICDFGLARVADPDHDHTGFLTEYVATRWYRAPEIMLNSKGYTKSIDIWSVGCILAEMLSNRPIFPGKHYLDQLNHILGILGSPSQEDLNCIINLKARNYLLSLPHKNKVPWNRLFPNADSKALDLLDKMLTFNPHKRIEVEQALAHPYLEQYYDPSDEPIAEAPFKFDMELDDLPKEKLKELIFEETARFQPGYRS

SMILES	inhibition [1]	inhibition [2]	inhibition [3]	inhibition [4]	inhibition [5]	inhibition [6]	inhibition [7]	inhibition [8]	inhibition [9]	inhibition [10]	inhibition [11]	inhibition [12]	inhibition [13]	remaining at 40 min [14]	inhibition [15]	inhibition [16]	inhibition [17]	inhibition [18]	remaining at 40 min [19]	inhibition [20]	also measured
CN1CCC(c2nc(-c3cccc(S(C)(=O)=O)c3)c(-c3ccnc(Nc4ccc(N5CCNCC5)cc4)n3)s2)CC1	< 70%	< 70%	< 70%	< 70%	70 to 90%	< 70%	< 70%	< 70%	< 70%	< 70%	< 70%	< 70%	< 70%	89%	< 70%	< 70%	< 70%	< 70%	84%	< 70%	inhibition [21]: < 70%; inhibition [22]: < 70%; inhibition [23]: < 70%; inhibition [24]: < 70%
CN1CCC(c2nc(-c3ccc(F)c(NS(C)(=O)=O)c3)c(-c3ccnc(NCC4CC4)n3)s2)CC1	< 70%	< 70%	< 70%	< 70%	< 70%	< 70%	< 70%	< 70%	< 70%	< 70%	< 70%	< 70%	< 70%	89%	< 70%	< 70%	< 70%	< 70%	95%	< 70%	inhibition [21]: < 70%; inhibition [22]: < 70%; inhibition [23]: < 70%; inhibition [24]: < 70%
